In patent publication US6525098B1, “6-methoxy-2-naphthylacetic acid prodrugs” (Nobex Corporation, priority 1999, dated 2003):

Columns and labels:
[1] = analysis of blood samples / plasma levels in rats after oral delivery; type: in vivo
From the text: FIG. 1 is a graph of in plasma levels of Example 1 compared to Nabumetone.

[2] = test system: rat paw edema; test: rat paw edema; type: in vivo
[3] = oral administration; cited from earlier work

Structure (SMILES)	plasma levels and onset compared to Nabumetone (FIG. 1) [1]	melting point	rat paw edema, % inhibition [2]	fraction of orally administered nabumetone transferred in vivo into 6MNA [3]
COc1ccc2cc(CCO)ccc2c1 [Example 1, 2-(6-Methoxy-naphthalen-2-yl)-ethanol]	higher plasma levels, with more rapid onset	110 to 113 °C	67.5%	
COc1ccc2cc(CCC(C)=O)ccc2c1 [Nabumetone, nabumetone, reference compound]			60.0%	about 35%
